# Experimental data reported in patent US8410289B2, “Spirocyclic 3'-alkoxytetramic acids and-tetronic acids” (Bayer Cropscience AG, priority 2004, dated 2013).
# Assay: log P determination by HPLC on reverse-phase column (C 18), EEC-Directive 79/831 Annex V.A8
# Assay type: physicochemical
# Conditions: HPLC reverse-phase C 18, acidic range pH 2.3, 43° C.
# Protocol: • The log P values given in the tables and preparation examples above are determined in accordance with EEC-Directive 79/831 Annex V.A8 by HPLC (High Performance Liquid Chromatography) on a reverse-phase column (C 18). Temperature: 43° C.
# The determination is carried out in the acidic range at pH 2.3 using the mobile phases 0.1% aqueous phosphoric acid and acetonitrile; linear gradient from 10% acetonitrile to 95% acetonitrile.
# The LC-MS determination in the acidic range is carried out at pH 2.7 using the mobile phases 0.1% aqueous formic acid and acetonitrile (contains 0.1% formic acid); linear gradient from […] acetonitrile to 95% acetonitrile.
# The LC-MS determination in the neutral range is carried out at pH 7.8 using the mobile phases 0.001 molar aqueous ammonium bicarbonate solution and acetonitrile; linear gradient from 10% acetonitrile to 95% acetonitrile.
# The calibration is carried out using unbranched alkan-2-ones (with 3 to 16 carbon atoms) with known log P values (determination of the log P values by retention times using linear interpolation between two successive alkanones).
row,logP,Compound
1,5.32,COC1CCCC2(C1)OC(=O)C(c1cc(-c3ccc(Cl)cc3)c(C)cc1C)=C2OC(=O)OC(C)C (centres unmarked) [Example I-2-c-2]
2,4.17,COC1CCCC2(C1)OC(=O)C(c1c(C)cc(C)cc1C)=C2OC(=O)OC(C)C (centres unmarked) [Example I-2-c-3]
3,4.34,COC1CCCC2(C1)OC(=O)C(c1c(C)cc(C)cc1C)=C2OC(=O)OC(C)C (centres unmarked) [Example I-2-c-4]
4,3.75,COc1cc(C)cc(C)c1C1=C(OC(=O)OC(C)C)C2(CCCC(OC)C2)OC1=O (centres unmarked) [Example I-2-c-5]
5,3.90,COc1cc(C)cc(C)c1C1=C(OC(=O)OC(C)C)C2(CCCC(OC)C2)OC1=O (centres unmarked) [Example I-2-c-6]

# Same assay, conditions: compounds of formula (I-2-a); generally isomer mixtures; those marked 1) were separated into cis and trans diastereomers
row,Compound,logP
1,COC1CCCC2(C1)OC(=O)C(c1cc(-c3ccc(Cl)cc3)c(C)cc1C)=C2O (mixture of isomers) [Example I-2-a-2],3.4
2,CCc1cc(Br)cc(CC)c1C1=C(O)C2(CCCC(OC)C2)OC1=O (mixture of isomers) [Example I-2-a-3],2.98
3,COC1CCCC2(C1)OC(=O)C(c1cc(C)ccc1C)=C2O (mixture of isomers) [Example I-2-a-35],2.15
4,COC1CCCC2(C1)OC(=O)C(c1ccc(Cl)cc1Br)=C2O (mixture of isomers) [Example I-2-a-36],2.25
5,COC1CCCC2(C1)OC(=O)C(c1ccc(Br)cc1Cl)=C2O (mixture of isomers) [Example I-2-a-37],2.31
6,COC1CCCC2(C1)OC(=O)C(c1ccc(Cl)cc1Cl)=C2O (mixture of isomers) [Example I-2-a-39],2.21
7,COC1CCCC2(C1)OC(=O)C(c1c(C)ccc(-c3ccc(Cl)cc3)c1C)=C2O (mixture of isomers) [Example I-2-a-42],3.29
8,COC1CCCC2(C1)OC(=O)C(c1cc(F)c(C)cc1C)=C2O (mixture of isomers) [Example I-2-a-45],2.25
9,COC1CCCC2(C1)OC(=O)C(c1cc(C)ccc1Br)=C2O (mixture of isomers) [Example I-2-a-49],2.16
10,COc1ccc(C2=C(O)C3(CCCC(OC)C3)OC2=O)c(C)c1 (mixture of isomers) [Example I-2-a-50],2.21
11,COC1CCCC2(C1)OC(=O)C(c1c(Cl)ccc(C)c1Cl)=C2O (mixture of isomers) [Example I-2-a-52],2.23
12,COC1CCCC2(C1)OC(=O)C(c1c(C)cc(C)c(-c3ccc(Cl)cc3)c1C)=C2O (mixture of isomers) [I-2-a-30],3.60
13,COC1CCCC2(C1)OC(=O)C(c1ccccc1Cl)=C2O (mixture of isomers) [I-2-a-38],1.86
14,COC1CCCC2(C1)OC(=O)C(c1cc(Cl)c(Br)cc1Cl)=C2O (mixture of isomers) [I-2-a-40],2.53
15,COC1CCCC2(C1)OC(=O)C(c1cc(C)c(Cl)cc1C)=C2O (mixture of isomers) [I-2-a-43],2.47
16,COC1CCCC2(C1)OC(=O)C(c1cc(Cl)c(C)cc1Cl)=C2O (mixture of isomers) [I-2-a-48],2.47

row,Compound,logP
1,COC1CCCC2(C1)OC(=O)C(c1cc(Br)ccc1Br)=C2O (mixture of isomers) [I-2-a-51],2.27
2,"COC1CCCC2(C1)OC(=O)C(c1ccc(Cl)cc1C)=C2O (single isomer, unassigned) [Example I-2-a-6]",2.19
3,"COC1CCCC2(C1)OC(=O)C(c1ccc(Cl)cc1C)=C2O (single isomer, unassigned) [Example I-2-a-8]",2.11
4,"COC1CCCC2(C1)OC(=O)C(c1cc(-c3ccc(Cl)cc3)ccc1C)=C2O (single isomer, unassigned) [Example I-2-a-32]",3.19^1)
5,COC1CCCC2(C1)OC(=O)C(c1ccccc1C)=C2O (centres unmarked) [Example I-2-a-7],1.81
6,COC1CCCC2(C1)OC(=O)C(c1c(Cl)cccc1Cl)=C2O (centres unmarked) [Example I-2-a-15],1.93
7,CCOC1CCCC2(C1)OC(=O)C(c1c(C)cc(-c3ccc(Cl)cc3)cc1CC)=C2O (centres unmarked) [Example I-2-a-17],4.19
8,COC1CCCC2(C1)OC(=O)C(c1c(Cl)cc(C)cc1Cl)=C2O (centres unmarked) [Example I-2-a-21],2.27
9,COC1CCCC2(C1)OC(=O)C(c1ccc(C)cc1Cl)=C2O (centres unmarked) [Example I-2-a-22],2.13
10,COC1CCCC2(C1)OC(=O)C(c1cc(-c3ccc(Cl)cc3)ccc1Cl)=C2O (centres unmarked) [Example I-2-a-31],3.14
11,COC1CCCC2(C1)OC(=O)C(c1cc(-c3cccc(Cl)c3)ccc1C)=C2O (centres unmarked) [Example I-2-a-33],3.16
12,COC1CCCC2(C1)OC(=O)C(c1cc(-c3cccc(Cl)c3)ccc1Cl)=C2O (centres unmarked) [Example I-2-a-34],3.11
13,COC1CCCC2(C1)OC(=O)C(c1cc(Br)ccc1C)=C2O (centres unmarked) [I-2-a-23],2.30
14,COC1CCCC2(C1)OC(=O)C(c1ccc(Cl)cc1C(F)(F)F)=C2O (centres unmarked) [I-2-a-24],2.37
15,COC1CCCC2(C1)OC(=O)C(c1c(C)cccc1Cl)=C2O (centres unmarked) [I-2-a-25],1.92
16,CCCCOC1CCCC2(C1)OC(=O)C(c1c(CC)cc(Br)cc1CC)=C2O (centres unmarked) [I-2-a-55],4.24

# Continued, values first:
row,logP,Compound
1,2.46,COC1CCCC2(C1)OC(=O)C(c1c(C)cc(Cl)cc1Br)=C2O (mixture of isomers) [Example I-2-a-4]
2,2.42,COC1CCCC2(C1)OC(=O)C(c1c(C)ccc(Cl)c1C)=C2O (mixture of isomers) [Example I-2-a-46]
3,2.78,COC1CCCC2(C1)OC(=O)C(c1c(C)cc(Br)c(C)c1Br)=C2O (mixture of isomers) [Example I-2-a-47]
4,2.70,COC1CCCC2(C1)OC(=O)C(c1c(C)cc(C)c(Br)c1C)=C2O (mixture of isomers) [I-2-a-41]
5,2.25,COC1CCCC2(C1)OC(=O)C(c1cc(F)c(C)cc1Br)=C2O (mixture of isomers) [I-2-a-44]
6,2.31^1),"COC1CCCC2(C1)OC(=O)C(c1c(C)cc(C)cc1C)=C2O (single isomer, unassigned) [Example I-2-a-14]"
7,2.10^1),"COc1cc(C)cc(C)c1C1=C(O)C2(CCCC(OC)C2)OC1=O (single isomer, unassigned) [Example I-2-a-16]"
8,2.40,COC1CCCC2(C1)OC(=O)C(c1c(Cl)cc(C)cc1Br)=C2O (centres unmarked) [Example I-2-a-5]
9,2.35,COC1CCCC2(C1)OC(=O)C(c1cc(C)c(C)cc1Br)=C2O (centres unmarked) [Example I-2-a-9]
10,2.40,COC1CCCC2(C1)OC(=O)C(c1c(C)cc(Br)cc1C)=C2O (centres unmarked) [Example I-2-a-10]
11,2.21,COC1CCCC2(C1)OC(=O)C(c1cc(C)c(C)cc1C)=C2O (centres unmarked) [Example I-2-a-11]
12,2.50,COC1CCCC2(C1)OC(=O)C(c1c(C)cc(C)c(C)c1C)=C2O (centres unmarked) [Example I-2-a-12]
13,2.74,CCc1cc(Br)cc(C)c1C1=C(O)C2(CCCC(OC)C2)OC1=O (centres unmarked) [Example I-2-a-13]
14,2.58,COC1CCCC2(C1)OC(=O)C(c1cc(C)c(Br)cc1Br)=C2O (centres unmarked) [Example I-2-a-18]
15,2.41,COC1CCCC2(C1)OC(=O)C(c1c(C)cc(Cl)cc1Cl)=C2O (centres unmarked) [Example I-2-a-20]
16,2.77,CCc1cc(Br)cc(Br)c1C1=C(O)C2(CCCC(OC)C2)OC1=O (centres unmarked) [Example I-2-a-26]
17,2.31,COC1CCCC2(C1)OC(=O)C(c1c(C)cc(C)cc1Cl)=C2O (centres unmarked) [Example I-2-a-27]
18,2.36,COC1CCCC2(C1)OC(=O)C(c1c(C)cc(C)cc1Br)=C2O (centres unmarked) [Example I-2-a-28]
19,2.62,CCc1cc(Cl)c(C2=C(O)C3(CCCC(OC)C3)OC2=O)c(Br)c1 (centres unmarked) [Example I-2-a-29]
20,2.45,COC1CCCC2(C1)OC(=O)C(c1c(C)cc(C)c(F)c1C)=C2O (centres unmarked) [Example I-2-a-54]
21,2.51,COC1CCCC2(C1)OC(=O)C(c1c(Br)cc(C)cc1Br)=C2O (centres unmarked) [I-2-a-19]
22,2.70,COC1CCCC2(C1)OC(=O)C(c1c(Cl)cc(Br)c(C)c1Cl)=C2O (centres unmarked) [I-2-a-53]

# Same assay, conditions: compounds of formula (I-2-b); isomer (cis, trans or α + β about 1:1); two values for α + β mixtures
row,logP,Compound
1,5.25,COC1CCCC2(C1)OC(=O)C(c1cc(-c3ccc(Cl)cc3)c(C)cc1C)=C2OC(=O)C(C)C (centres unmarked) [Example I-2-b-2]
2,4.32,COC1CCCC2(C1)OC(=O)C(c1c(C)cc(C)cc1C)=C2OC(=O)C(C)C (centres unmarked) [Example I-2-b-3]
3,4.15,COC1CCCC2(C1)OC(=O)C(c1c(C)cc(C)cc1C)=C2OC(=O)C(C)C (centres unmarked) [Example I-2-b-4]
4,3.90,COc1cc(C)cc(C)c1C1=C(OC(=O)C(C)C)C2(CCCC(OC)C2)OC1=O (centres unmarked) [Example I-2-b-5]
5,3.75,COc1cc(C)cc(C)c1C1=C(OC(=O)C(C)C)C2(CCCC(OC)C2)OC1=O (centres unmarked) [Example I-2-b-6]

# Same assay, conditions: compounds of formula (II); two values where an α/β isomer mixture is given
row,log P,Compound
1,log P 3.64,"CCc1cc(C)cc(Br)c1CC(=O)NC1(C(=O)OC)CCCC(OCCOC)C1 (single isomer, unassigned) [II-28]"

# Same assay, conditions: reverse-phase HPLC column (C 18); HPLC, reverse-phase column (C 18), 43° C.
row,chromatographic logP,Compound
1,3.57,CCCCOC1CCCC2(C1)OC(=O)C(c1c(C)cc(C)cc1C)=C2O (centres unmarked) [Example I-2-a-1]
2,5.37,CO[C@H]1CCC[C@]2(C1)OC(=O)C(c1cc(-c3ccc(Cl)cc3)c(C)cc1C)=C2OC(=O)C(C)C [Example I-2-b-1]
3,5.21,CO[C@H]1CCC[C@@]2(C1)OC(=O)C(c1cc(-c3ccc(Cl)cc3)c(C)cc1C)=C2OC(=O)OC(C)C [Example I-2-c-1]
